Experimental data: US10004701B2, “Methods and compositions for treating infection” (UNIVERSITY OF ROCHESTER, priority 2012, dated 2018)
Structures can show the parent of a compound that is named as a salt. Where two headings read alike, the source gives them in different places.

Columns and labels:
Assay in all cases: AK assay 384-well format, Prestwick library screening
[1] = system: S. aureus strain USA300-0114; format: cell-based, Staphylococcus aureus; settings: for fold induction at 50 µM: Staphylococcus aureus, USA300, 3 h
[2] = system: P. aeruginosa; format: cell-based, Pseudomonas aeruginosa; settings: 50 μM final drug concentration; for fold induction at 50 µM: Pseudomonas aeruginosa, 3 h
[3] = system: A. baumannii strain 98-37-09; format: cell-based, Acinetobacter baumannii; settings: 50 μM final drug concentration; for fold induction at 50 µM: Acinetobacter baumannii, 983709, 3 h
[4] = system: E. coli; format: cell-based, Escherichia coli; settings: 50 μM final drug concentration; for fold induction at 50 µM: Escherichia coli, 3 h
[5] = system: E. faecium; format: cell-based, Enterococcus faecium; settings: 50 μM final drug concentration; for fold induction at 50 µM: Enterococcus faecium, 3 h
[6] = system: E. cloacae; format: cell-based, Enterobacter cloacae; settings: 50 μM final drug concentration; for fold induction at 50 µM: Enterobacter cloacae, 3 h
[7] = system: K. pneumoniae; format: cell-based, Klebsiella pneumoniae; settings: 50 μM final drug concentration; for fold induction at 50 µM: Klebsiella pneumoniae, 3 h
[8] = planktonic S. aureus, 50 μM final drug concentration, cutoff for positive-scoring molecules 3-fold increase, read-out: AK-based Prestwick Library Screening Results, S. aureus (increase in extracellular AK activity)
[9] = planktonic P. aeruginosa, cutoff for positive-scoring molecules 3-fold increase, read-out: AK-based Prestwick Library Screening Results, P. aeruginosa (increase in extracellular AK activity)
[10] = planktonic A. baumannii, cutoff for positive-scoring molecules 3-fold increase, read-out: AK-based Prestwick Library Screening Results, A. baumannii (increase in extracellular AK activity)
[11] = planktonic E. coli, cutoff for positive-scoring molecules 3-fold increase, read-out: AK-based Prestwick Library Screening Results, E. coli (increase in extracellular AK activity)
[12] = planktonic E. faecium, cutoff for positive-scoring molecules 3-fold increase, read-out: AK-based Prestwick Library Screening Results, E. faecium (increase in extracellular AK activity)
[13] = planktonic E. cloacae, cutoff for positive-scoring molecules 3-fold increase, read-out: AK-based Prestwick Library Screening Results, E. cloacae (increase in extracellular AK activity)
[14] = planktonic K. pneumoniae, cutoff for positive-scoring molecules 3-fold increase, read-out: AK-based Prestwick Library Screening Results, K. pneumoniae (increase in extracellular AK activity)
[15] = 50 μM final drug concentration, 384-well format, cutoff for positive-scoring molecules 3-fold increase, read-out: AK-based Prestwick Library Screening Results, S. aureus (increase in extracellular AK activity)
[16] = 384-well format, cutoff for positive-scoring molecules 3-fold increase, read-out: AK-based Prestwick Library Screening Results, P. aeruginosa (increase in extracellular AK activity)
[17] = 384-well format, cutoff for positive-scoring molecules 3-fold increase, read-out: AK-based Prestwick Library Screening Results, A. baumannii (increase in extracellular AK activity)
[18] = 384-well format, cutoff for positive-scoring molecules 3-fold increase, read-out: AK-based Prestwick Library Screening Results, E. coli (increase in extracellular AK activity)
[19] = 384-well format, cutoff for positive-scoring molecules 3-fold increase, read-out: AK-based Prestwick Library Screening Results, E. faecium (increase in extracellular AK activity)
[20] = 384-well format, cutoff for positive-scoring molecules 3-fold increase, read-out: AK-based Prestwick Library Screening Results, E. cloacae (increase in extracellular AK activity)
[21] = 384-well format, cutoff for positive-scoring molecules 3-fold increase, read-out: AK-based Prestwick Library Screening Results, K. pneumoniae (increase in extracellular AK activity)

CC(=O)OCC(=O)[C@H]1CC[C@H]2[C@@H]3CC[C@H]4C[C@H](O)CC[C@]4(C)[C@H]3C(=O)C[C@]12C [Alfadolone acetate]
fold induction at 50 µM ([1]; planktonic S. aureus, 50 μM final drug concentration, […], read-out: AK-based Prestwick library screening result, S. aureus (fold increase in extracellular AK activity)): 1 | fold induction at 50 µM ([2]; planktonic P. aeruginosa, […], read-out: AK-based Prestwick library screening result, P. aeruginosa (fold increase in extracellular AK activity)): 1 | fold induction at 50 µM ([3]; planktonic A. baumannii, […], read-out: AK-based Prestwick library screening result, A. baumannii (fold increase in extracellular AK activity)): 1 | fold induction at 50 µM ([4]; planktonic E. coli, […], read-out: AK-based Prestwick library screening result, E. coli (fold increase in extracellular AK activity)): 1.2 | fold induction at 50 µM ([5]; planktonic E. faecium, […], read-out: AK-based Prestwick library screening result, E. faecium (fold increase in extracellular AK activity)): 1.1 | fold induction at 50 µM ([6]; planktonic E. cloacae, […], read-out: AK-based Prestwick library screening result, E. cloacae (fold increase in extracellular AK activity)): 1.4 | fold induction at 50 µM ([7]; planktonic K. pneumoniae, […], read-out: AK-based Prestwick library screening result, K. pneumoniae (fold increase in extracellular AK activity)): 0.9

CCC(=O)OCC(=O)[C@@]1(OC(=O)CC)[C@H](C)C[C@H]2[C@H]3[C@H]([C@@H](O)C[C@@]21C)[C@@]1(C)C=CC(=O)C=C1C[C@H]3Cl [Alclometasone dipropionate]
fold induction at 50 µM ([1]; 50 μM final drug concentration, […], read-out: AK-based Prestwick Library Screening Results, S. aureus (fold increase in extracellular AK activity)): 1.1 | fold induction at 50 µM ([2]; […], read-out: AK-based Prestwick Library Screening Results, P. aeruginosa (fold increase in extracellular AK activity)): 1 | fold induction at 50 µM ([3]; […], read-out: AK-based Prestwick Library Screening Results, A. baumannii (fold increase in extracellular AK activity)): 0.9 | fold induction at 50 µM ([4]; […], read-out: AK-based Prestwick Library Screening Results, E. coli (fold increase in extracellular AK activity)): 1.1 | fold induction at 50 µM ([5]; […], read-out: AK-based Prestwick Library Screening Results, E. faecium (fold increase in extracellular AK activity)): 1 | fold induction at 50 µM ([6]; […], read-out: AK-based Prestwick Library Screening Results, E. cloacae (fold increase in extracellular AK activity)): 1.2 | fold induction at 50 µM ([7]; […], read-out: AK-based Prestwick Library Screening Results, K. pneumoniae (fold increase in extracellular AK activity)): 1.1

NC(=O)c1cnccn1 [Pyrazinamide]
fold induction at 50 µM [1, 8]: 0.7 | fold induction at 50 µM [2, 9]: 0.8 | fold induction at 50 µM [3, 10]: 0.9 | fold induction at 50 µM [4, 11]: 0.9 | fold induction at 50 µM [5, 12]: 0.8 | fold induction at 50 µM [6, 13]: 1.2 | fold induction at 50 µM [7, 14]: 0.8

CC(C)/N=c1\cc2n(-c3ccc(Cl)cc3)c3ccccc3nc-2cc1Nc1ccc(Cl)cc1 [Clofazimine, clofazimine, reference compound]
activity in AK Prestwick screen ([1]; S. aureus USA300-0114, 50 μM, cutoff 3-fold increase in AK): active | fold induction at 50 µM ([1]; 50 μM final drug concentration, planktonic, cutoff for positive 3-fold increase, read-out: AK-based Prestwick Library Screening Results, S. aureus (fold increase in extracellular AK activity)): 4.6 | fold induction at 50 µM ([2]; planktonic, cutoff for positive 3-fold increase, read-out: AK-based Prestwick Library Screening Results, P. aeruginosa (fold increase in extracellular AK activity)): 1 | fold induction at 50 µM ([3]; planktonic, cutoff for positive 3-fold increase, read-out: AK-based Prestwick Library Screening Results, A. baumannii (fold increase in extracellular AK activity)): 5 | fold induction at 50 µM ([4]; planktonic, cutoff for positive 3-fold increase, read-out: AK-based Prestwick Library Screening Results, E. coli (fold increase in extracellular AK activity)): 1.2 | fold induction at 50 µM ([5]; planktonic, cutoff for positive 3-fold increase, read-out: AK-based Prestwick Library Screening Results, E. faecium (fold increase in extracellular AK activity)): 1 | fold induction at 50 µM ([6]; planktonic, cutoff for positive 3-fold increase, read-out: AK-based Prestwick Library Screening Results, E. cloacae (fold increase in extracellular AK activity)): 1.8 | fold induction at 50 µM ([7]; planktonic, cutoff for positive 3-fold increase, read-out: AK-based Prestwick Library Screening Results, K. pneumoniae (fold increase in extracellular AK activity)): 1.1

Clc1ccccc1C(c1ccccc1)(c1ccccc1)n1ccnc1 [Clotrimazole]
fold induction at 50 µM [1, 15]: 2 | fold induction at 50 µM [2, 16]: 1 | fold induction at 50 µM [3, 17]: 3.3 | fold induction at 50 µM [4, 18]: 1 | fold induction at 50 µM [5, 19]: 1.3 | fold induction at 50 µM [6, 20]: 1 | fold induction at 50 µM [7, 21]: 1

CC(C)[N+](C)(CCC(C(N)=O)(c1ccccc1)c1ccccc1)C(C)C [Isopropamide iodide]
fold induction at 50 µM ([1]; 50 μM final drug concentration, cutoff for positive-scoring molecules 3-fold increase, read-out: AK-based Prestwick Library Screening Results, S. aureus (fold increase in extracellular AK activity)): 1.2 | fold induction at 50 µM ([2]; cutoff for positive-scoring molecules 3-fold increase, read-out: AK-based Prestwick Library Screening Results, P. aeruginosa (fold increase in extracellular AK activity)): 1.2 | fold induction at 50 µM ([3]; cutoff for positive-scoring molecules 3-fold increase, read-out: AK-based Prestwick Library Screening Results, A. baumannii (fold increase in extracellular AK activity)): 1 | fold induction at 50 µM ([4]; cutoff for positive-scoring molecules 3-fold increase, read-out: AK-based Prestwick Library Screening Results, E. coli (fold increase in extracellular AK activity)): 1.3 | fold induction at 50 µM ([5]; cutoff for positive-scoring molecules 3-fold increase, read-out: AK-based Prestwick Library Screening Results, E. faecium (fold increase in extracellular AK activity)): 1.1 | fold induction at 50 µM ([6]; cutoff for positive-scoring molecules 3-fold increase, read-out: AK-based Prestwick Library Screening Results, E. cloacae (fold increase in extracellular AK activity)): 1.5 | fold induction at 50 µM ([7]; cutoff for positive-scoring molecules 3-fold increase, read-out: AK-based Prestwick Library Screening Results, K. pneumoniae (fold increase in extracellular AK activity)): 1.1

O.O=C(O)[C@@H]1[C@H]2C[C@H]3c4[nH]c5ccccc5c4CCN3C[C@@H]2CC[C@@H]1O [Yohimbinic acid monohydrate]
AK-based Prestwick Library Screening Results, S. aureus (increase in extracellular AK activity) ([1]; planktonic S. aureus, 50 μM final drug concentration, […]): 0.7 | AK-based Prestwick Library Screening Results, P. aeruginosa (increase in extracellular AK activity) ([2]; planktonic P. aeruginosa, […]): 0.9 | AK-based Prestwick Library Screening Results, A. baumannii (increase in extracellular AK activity) ([3]; planktonic A. baumannii, […]): 0.8 | AK-based Prestwick Library Screening Results, E. coli (increase in extracellular AK activity) ([4]; planktonic E. coli, […]): 0.9 | AK-based Prestwick Library Screening Results, E. faecium (increase in extracellular AK activity) ([5]; planktonic E. faecium, […]): 0.9 | AK-based Prestwick Library Screening Results, E. cloacae (increase in extracellular AK activity) ([6]; planktonic E. cloacae, […]): 0.9 | AK-based Prestwick Library Screening Results, K. pneumoniae (increase in extracellular AK activity) ([7]; planktonic K. pneumoniae, […]): 0.7

NS(=O)(=O)c1cc2c(cc1C(F)(F)F)NCNS2(=O)=O [Hydroflumethiazide]
fold induction at 50 µM [1, 15]: 0.5 | fold induction at 50 µM [2, 16]: 0.5 | fold induction at 50 µM [3, 17]: 0.7 | fold induction at 50 µM [4, 18]: 0.7 | fold induction at 50 µM [5, 19]: 0.9 | fold induction at 50 µM [6, 20]: 0.7 | fold induction at 50 µM [7, 21]: 0.5

O=C(CCCN1CCC(n2c(O)nc3ccccc32)CC1)c1ccc(F)cc1 [Benperidol]
fold induction at 50 µM [1, 8]: 0.5 | fold induction at 50 µM [2, 9]: 0.6 | fold induction at 50 µM [3, 10]: 0.5 | fold induction at 50 µM [4, 11]: 0.6 | fold induction at 50 µM [5, 12]: 1 | fold induction at 50 µM [6, 13]: 0.6 | fold induction at 50 µM [7, 14]: 0.5

CN1CCCC(CC2c3ccccc3Sc3ccccc32)C1 (centres unmarked) [Metixene hydrochloride]
fold induction at 50 µM [1, 8]: 0.7 | fold induction at 50 µM [2, 9]: 0.8 | fold induction at 50 µM [3, 10]: 1 | fold induction at 50 µM [4, 11]: 0.9 | fold induction at 50 µM [5, 12]: 1 | fold induction at 50 µM [6, 13]: 0.8 | fold induction at 50 µM [7, 14]: 0.8
